US11478474B2, “2-(3′-(hydroxymethyl)-1-methyl-5-((5-(2-methyl-4-(oxetan-3-yl)piperazin-1-yl)pyridin-2-yl)amino)-6-oxo-1,6-dihydro-[3,4′-bipyridin]-2′-yl)-7,7-dimethyl-7,8-dihydro-2H-cyclopenta[4,5]pyrrolo[1,2-a]pyrazin-1(6H)-one as a BTK inhibitor” (HUTCHISON MEDIPHARMA LIMITED, priority 2020, dated 2022)

Assays:
[1] = target: phosphorylated BTK in Ramos cells (Homo sapiens (Human), UniProt Q06187); test: Determination of phosphorylated BTK in Ramos cells (BTK phospho-Y223 HTRF); type: cell-based; conditions: anti-human IgM + hydrogen peroxide stimulation
How it was run: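 BTK Y223 phosphorylation measured by HTRF (665/615 nm) in lysates of Ramos cells. Cells were serum-starved 2 h, exposed to compound for 1 h (final 0.00018–3.0 μM, 0.3% DMSO), then stimulated 10 min with 10 μg/mL anti-IgM and 3.3 mM H2O2. IC50 derived from percent inhibition between unstimulated and stimulated controls.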

BTK recombinant protein = BTK recombinant protein (Homo sapiens (Human), UniProt Q06187); test: Determination of biochemical BTK (Z'-LYTE kinase assay)
How it was run: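 Human BTK recombinant kinase (3.32 nM final) was preincubated with compound for 30 min at 4 °C. Reaction ran 1 h at room temperature with Tyr01 FRET peptide (2 μM) and ATP (32 μM); development protease then added. Coumarin 445 nm/fluorescein 520 nm emission ratio (400 nm excitation) gave inhibition across 8 concentrations, 3000–1.37 nM.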

BTK recombinant protein, sequence (Q06187 whole entry): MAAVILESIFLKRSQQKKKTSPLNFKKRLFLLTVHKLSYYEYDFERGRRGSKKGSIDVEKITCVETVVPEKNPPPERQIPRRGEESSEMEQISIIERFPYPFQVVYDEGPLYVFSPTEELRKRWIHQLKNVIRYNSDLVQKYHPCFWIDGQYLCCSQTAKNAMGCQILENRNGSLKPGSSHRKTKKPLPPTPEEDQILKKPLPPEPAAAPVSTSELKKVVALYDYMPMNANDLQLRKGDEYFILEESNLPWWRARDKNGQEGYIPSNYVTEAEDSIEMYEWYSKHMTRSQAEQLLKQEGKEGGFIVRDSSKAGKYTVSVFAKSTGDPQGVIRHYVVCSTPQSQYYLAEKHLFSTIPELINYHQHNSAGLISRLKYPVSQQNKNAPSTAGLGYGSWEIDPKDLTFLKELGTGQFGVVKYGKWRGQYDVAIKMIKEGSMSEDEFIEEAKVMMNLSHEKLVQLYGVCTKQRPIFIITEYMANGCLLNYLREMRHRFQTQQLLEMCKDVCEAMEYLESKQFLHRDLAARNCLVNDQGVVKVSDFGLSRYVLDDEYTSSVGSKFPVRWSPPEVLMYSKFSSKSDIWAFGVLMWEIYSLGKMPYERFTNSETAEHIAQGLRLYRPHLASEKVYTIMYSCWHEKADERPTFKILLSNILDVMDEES
phosphorylated BTK in Ramos cells, sequence (Q06187 whole entry): as above

Structure (SMILES) | IC50 [1] | IC50 (BTK recombinant protein)
C[C@@H]1c2cc(Nc3cc(-c4ccnc(-n5ccn6c7c(cc6c5=O)CC(C)(C)C7)c4CO)cn(C)c3=O)nn2CCN1C1COC1 [Compound 137] | 4 nM | 6 nM
COC1CN(c2ccc(Nc3cc(-c4ccnc(-n5ncn6c7c(cc6c5=O)CC(C)(C)C7)c4CO)cn(C)c3=O)nc2)C1 [Compound 139] | 11 nM | 39 nM
Cn1cc(-c2ccnc(-n3ccn4c5c(cc4c3=O)CC(C)(C)C5)c2CO)cc(Nc2ccc(C3CN(C4COC4)C3)cn2)c1=O [Compound 140] | 11 nM | < 1 nM
Cn1cc(-c2ccnc(-n3ncn4c5c(cc4c3=O)CC(C)(C)C5)c2CO)cc(Nc2ccc(C3CN(C4COC4)C3)cn2)c1=O [Compound 141] | 13 nM | 14 nM
Cn1cc(-c2ccnc(-n3ccn4c5c(cc4c3=O)CCC5)c2CO)cc(Nc2cc3n(n2)CCN(C#N)C3)c1=O [Compound 142] | 60 nM | 51 nM
Cn1cc(-c2ccnc(-n3ncn4c5c(cc4c3=O)CC(C)(C)C5)c2CO)cc(Nc2cc3n(n2)CCN(C#N)C3)c1=O [Compound 143] | 5 nM | 4 nM
C[C@H]1CN(C2COC2)CCN1c1ccc(Nc2cc(-c3ccnc(-n4ncn5c(c(F)c6ccccc65)c4=O)c3CO)cn(C)c2=O)nc1 [Compound 149] | 8 nM | 19 nM
C[C@H]1CN(C2COC2)CCN1c1ccc(Nc2cc(-c3ccnc(-n4ncn5c6c(cc5c4=O)CCCCC6)c3CO)cn(C)c2=O)nc1 [Compound 150] | 12 nM | 12 nM
C[C@H]1CN(C2COC2)CCN1c1ccc(Nc2cc(-c3ccnc(-n4ncn5c(cc6ccccc65)c4=O)c3CO)cn(C)c2=O)nc1 [Compound 151] | 28 nM | 2 nM
COCc1cc(Nc2cc(-c3ccnc(-n4ccn5c6c(cc5c4=O)CC(C)(C)C6)c3CO)cn(C)c2=O)nn1C [Compound 154] | 13 nM | 8 nM
Cn1cc(-c2ccnc(-n3ncn4c5c(cc4c3=O)CC(C)(C)C5)c2CO)cc(Nc2cc3n(n2)CCOC3)c1=O [Compound 156] | 12 nM | 6 nM
C[C@H]1CN(C2COC2)CCN1c1ccc(Nc2cc(-c3ccnc(-n4ncn5c6c(cc5c4=O)CCCC6)c3CO)cn(C)c2=O)nc1 [Compound 157] | 25 nM | 16 nM
COC1CN(c2ccc(Nc3cc(-c4ccnc(-n5ccn6c7c(cc6c5=O)CC(C)(C)C7)c4CO)cn(C)c3=O)nn2)C1 [Compound 159] | 26 nM | 6 nM
C[C@H]1CN(C2COC2)CCN1c1ccc(Nc2cc(-c3ccnc(-n4ccn5c6c(c(F)c5c4=O)CCCC6)c3CO)cn(C)c2=O)nc1 [Compound 161] | 7 nM | 4 nM
Cn1cc(-c2ccnc(-n3ccn4c5c(cc4c3=O)CC(C)(C)C5)c2CO)cc(Nc2cc3n(n2)CCOC3)c1=O [Compound 162] | 6 nM | 1 nM
COCCN1CCn2nc(Nc3cc(-c4ccnc(-n5ncn6c7c(cc6c5=O)CCCC7)c4CO)cn(C)c3=O)cc2C1 [Compound 163] | 34 nM | 8 nM
Cc1nn(-c2nccc(-c3cc(Nc4cc5n(n4)CCN(C4COC4)C5)c(=O)n(C)c3)c2CO)c(=O)c2cc3c(n12)CC(C)(C)C3 [Compound 164] | 23 nM | 12 nM
CCN1CCn2nc(Nc3cc(-c4ccnc(-n5ncn6c7c(cc6c5=O)CC(C)(C)C7)c4CO)cn(C)c3=O)cc2C1 [Compound 165] | 31 nM | 4 nM
Cn1cc(-c2ccnc(-n3ncn4c5c(cc4c3=O)CCCC5)c2CO)cc(Nc2cc3n(n2)CCN(C2COC2)C3)c1=O [Compound 166] | 121 nM | 35 nM
COCCN1CCn2nc(Nc3cc(-c4ccnc(-n5ccn6c7c(c(F)c6c5=O)CCCC7)c4CO)cn(C)c3=O)cc2C1 [Compound 167] | 12 nM | 16 nM
COCCN1CCn2nc(Nc3cc(-c4ccnc(-n5ccn6c7c(cc6c5=O)CC(C)C7)c4CO)cn(C)c3=O)cc2C1 (stereo not shown) [Compound 168] | 20 nM | 28 nM
COc1ccc(Nc2cc(-c3ccnc(-n4ccn5c6c(cc5c4=O)CC(C)(C)C6)c3CO)cn(C)c2=O)nn1 [Compound 169] | 30 nM | 60 nM
Cn1cc(-c2ccnc(-n3ncn4c5c(cc4c3=O)CC(C)(C)C5)c2CO)cc(Nc2cc3n(n2)CCN(C2CCC2)C3)c1=O [Compound 170] | 16 nM | 18 nM
Cn1cc(-c2ccnc(-n3ncn4c5c(cc4c3=O)CC(C)(C)C5)c2CO)cc(Nc2cc3n(n2)CCN(C2CC2)C3)c1=O [Compound 171] | 11 nM | 13 nM
CCn1cc(Nc2cc(-c3ccnc(-n4ccn5c6c(cc5c4=O)CC(C)(C)C6)c3CO)cn(C)c2=O)cn1 [Compound 172] | 11 nM | 41 nM

Structure (SMILES) | IC50 [1] | IC50 (BTK recombinant protein)
CC(C)n1cc(Nc2cc(-c3ccnc(-n4ccn5c6c(cc5c4=O)CC(C)(C)C6)c3CO)cn(C)c2=O)cn1 [Compound 173] | 28 nM | 80 nM
CCCn1cc(Nc2cc(-c3ccnc(-n4ccn5c6c(cc5c4=O)CC(C)(C)C6)c3CO)cn(C)c2=O)cn1 [Compound 174] | 44 nM | 2 nM
COCCn1cc(Nc2cc(-c3ccnc(-n4ccn5c6c(cc5c4=O)CC(C)(C)C6)c3CO)cn(C)c2=O)cn1 [Compound 175] | 40 nM | 71 nM
Cn1cc(-c2ccnc(-n3ccn4c5c(c(F)c4c3=O)CCCC5)c2CO)cc(Nc2cc3n(n2)CCOC3)c1=O [Compound 176] | 16 nM | 3 nM
COCCN1CCn2nc(Nc3cc(-c4ccnc(-n5ccn6c(c(F)c7ccccc76)c5=O)c4CO)cn(C)c3=O)cc2C1 [Compound 177] | 21 nM | 6 nM
Cn1cc(-c2ccnc(-n3ccn4c(c(F)c5ccccc54)c3=O)c2CO)cc(Nc2cc3n(n2)CCN(C2COC2)C3)c1=O [Compound 178] | 12 nM | 6 nM
CCn1cc(Nc2cc(-c3ccnc(-n4ccn5c6c(c(F)c5c4=O)CCCC6)c3CO)cn(C)c2=O)cn1 [Compound 180] | 84 nM | 16 nM
CC1Cc2cc3c(=O)n(-c4nccc(-c5cc(Nc6cc7n(n6)CCOC7)c(=O)n(C)c5)c4CO)ccn3c2C1 (stereo not shown) [Compound 181] | 38 nM | 12 nM
Cn1cc(-c2ccnc(-n3ccn4c(c(F)c5ccccc54)c3=O)c2CO)cc(Nc2ccc(C3CN(C4COC4)C3)cn2)c1=O [Compound 183] | 67 nM | 25 nM
C[C@H]1CN(C2COC2)CCN1c1ccc(Nc2cc(-c3ccnc(-n4cnn5c6c(cc5c4=O)CCCC6)c3CO)cn(C)c2=O)nc1 [Compound 184] | 80 nM | 77 nM
C[C@H]1CN(C(CO)CO)CCN1c1ccc(Nc2cc(-c3ccnc(-n4ccn5c6c(cc5c4=O)CC(C)(C)C6)c3CO)cn(C)c2=O)nc1 [Compound 185] | 13 nM | 13 nM
C[C@H]1CN(C2COC2)CCN1c1ccc(Nc2cc(-c3ccnc(-n4ncn5c6c(c(F)c5c4=O)CCCC6)c3CO)cn(C)c2=O)nc1 [Compound 186] | 10 nM | 14 nM
Cc1ccc2c(c1)cc1c(=O)n(-c3nccc(-c4cc(Nc5ccc(N6CCN(C7COC7)C[C@@H]6C)cn5)c(=O)n(C)c4)c3CO)ccn12 [Compound 188] | 39 nM | 41 nM
C[C@H]1COCCN1c1ccc(Nc2cc(-c3ccnc(-n4ccn5c6c(cc5c4=O)CCC6)c3CO)cn(C)c2=O)nc1 [Compound 189] | 51 nM | 39 nM
C[C@H]1CN(C2COC2)CCN1c1ccc(Nc2cc(-c3ccnc(-n4cnn5c6c(c(F)c5c4=O)CCCC6)c3CO)cn(C)c2=O)nc1 [Compound 190] | 40 nM | 29 nM
Cn1cc(-c2ccnc(-n3ncn4c5c(cc4c3=O)CC(C)(C)C5)c2CO)cc(Nc2ccc(N3CCN(C4COC4)CC3(C)C)cn2)c1=O [Compound 191] | 10 nM | 11 nM
Cc1cc(Nc2cc(-c3ccnc(-n4ncn5c6c(cc5c4=O)CC(C)(C)C6)c3CO)cn(C)c2=O)no1 [Compound 192] | 16 nM | 9 nM
C[C@@H]1CN(c2ccc(Nc3cc(-c4ccnc(-n5ncn6c7c(cc6c5=O)CC(C)(C)C7)c4CO)cn(C)c3=O)nc2)[C@@H](C)CN1C1COC1 [Compound 193] | 6 nM | 12 nM
C[C@H]1COCCN1c1ccc(Nc2cc(-c3ccnc(-n4ncn5c6c(cc5c4=O)CC(C)(C)C6)c3CO)cn(C)c2=O)nc1 [Compound 196] | 7 nM | 2 nM
C[C@H]1CN(C2COC2)CCN1c1ccc(Nc2cc(-c3ccnc(-n4ccn5c6c(cc5c4=O)CC(C)(C)[C@@H]6O)c3CO)cn(C)c2=O)nc1 [Compound 198] | 12 nM | 4 nM
C[C@H]1CN(C2COC2)CCN1c1ccc(Nc2cc(-c3ccnc(-n4ccn5c6c(cc5c4=O)CC(C)(C)[C@H]6O)c3CO)cn(C)c2=O)nc1 [Compound 199] | 25 nM | 8 nM
Cn1cc(-c2ccnc(-n3ccn4c5c(cc4c3=O)CC(C)(C)C5)c2CO)cc(Nc2ccc(C3CCN(C4COC4)CC3)nn2)c1=O [Compound 200] | 21 nM | 4 nM
CCn1cc(-c2ccnc(-n3ccn4c5c(cc4c3=O)CC(C)(C)C5)c2CO)cc(Nc2ccc(N3CCN(C4COC4)C[C@@H]3C)cn2)c1=O [Compound 202] | 17 nM | 8 nM
C[C@H]1COCCN1c1ccc(Nc2cc(-c3ccnc(-n4ccn5c6c(cc5c4=O)CC(C)(C)C6)c3CO)cn(C)c2=O)nn1 [Compound 203] | 7 nM | < 1 nM
C[C@H]1CN(C2COC2)CCN1c1ccc(Nc2cc(-c3ccnc(-n4ccn5c6c(cc5c4=O)CC(C)(C)C6)c3CO)cn(C)c2=O)nn1 [Compound 204] | 7 nM | 11 nM
